The values below come from patent US6908907B2, “Prevention and treatment of tumor growth, metastasis, and thromboembolic complications in cancer patients” (priority 2002, dated 2005).

One assay has as its system B16 melanoma. Put plainly: B16 melanoma injectable model of experimental lung metastasis. It is filed as in vivo, mice. To be noted: 700 ng i.v. 5 minutes prior to tumor cell injection. From the text: (§1) Tinzaparin is a low molecular weight heparin that is produced by heparinase depolymerization of unfractionated heparin allowing for its relatively high sulfate to carboxylate ratio. Beyond its potent plasmatic effects on ATIII-dependent coagulation factors, Tinzaparin is a very effective LMWH in causing the release of TFPI from the endothelial cells, the natural inhibitor of tissue factor pro-coagulant and non-coagulant effects. The present study was undertaken to investigate the effect of the LMWH, Tinzaparin as well as recombinant TFPI on experimental lung metastasis. […] In a second experimental group, in addition to the initial (pre-tumor cell) dose, subcutaneous Tinzaparin (10 mg/kg) was administered daily for 14 days at which time lung seeding was assessed. In the latter group, lung tumor formation was reduced by 96% (P<0.001). […] In order to determine the anticoagulant activity of Tinzaparin, 4 hrs after a single subcutaneous dose, whole blood re-calcification was measured using a Sonoclot Analyzer. Tinzaparin (10 mg/kg S.C.) prolonged the clotting time 4 fold. Furthermore, measuring the platelet count (a sensitive marker of intravascular coagulation) before and 15 minutes determined the effect of Tinzaparin on tumor cell-induced clotting activation in vivo after tumor cell injection in control and Tinzaparin-treated animals. […]

Assay [1] concerns endothelial cell tube formation. To be noted: concentration-dependent; cited from earlier work.
Assay [2] relates to colon carcinoma (HCT-116). To be noted: CAM model; cited from earlier work.
In assay [3] the test system is tumor cell-induced thrombocytopenia. Put plainly: Tumor cell-induced clotting activation in vivo (platelet count). Also on record: species or system mice. As to conditions: 700 ng i.v. 5 minutes prior to tumor cell injection.
Text: as §1

Turning to “r-TFPI: recombinant tissue factor pathway inhibitor”, the “reduction of B16 lung metastasis” value with B16 melanoma was found to be 85%. For the same substance, in assay [1], the “effect on endothelial cell tube formation” value was “significant and comparable inhibitory effects”. Moreover, in assay [2], the “inhibition of colon or lung carcinoma-induced angiogenesis, tumor growth and regression” value was “significant inhibition”. Further, the “effect on tumor cell induced thrombocytopenia” value in assay [3] is “abolished tumor cell induced thrombocytopenia”.
